Assay [1] concerns patients with a clinically confirmed RA. The assay can be described thus: Clinical response to MTX therapy in RA patients (DAS28, EULAR criteria). Type of assay: in vivo, human. The following applies: Health Assessment Questionnaire; one line per individual RA patient; during MTX treatment. The method, then:
[…] patients with a clinically confirmed RA were examined in the series of tests for the identification and definition of biomarkers for therapy prediction with MTX. In this regard, 5 ml of whole blood was taken from the patients in 2 PAXgene tubes (PreAnalytiX, Hombrechtikon, Switzerland) and turned for 24 hours on an overhead roller at 20° C. (20 rpm); afterwards, they were frozen at −20° C. until worked up. The patient samples were acquired in the context of two clinical studies under standard conditions (HitHard study; n=29; own clinical study; n=22) and after authorization by the ethics commission of the charity, as well as the agreement of the patients. The clinical data, prior to MTX therapy and over the course of >1 year, were stored in the context of the study conditions in a clinical database in accordance with ISO 9001 standard guidelines. The calculation of the assessment of the MTX response before and during the therapy periods was carried out in accordance with the guidelines from the European League Against Rheumatism (ELUAR) using the “Disease Activity Score” considering 28 joints (DAS28; (van Gestel et al, 1999)). The MTX therapy response was classified, in accordance with the guidelines, into the following three groups: responders (R), moderate responders (MR) and non-responders (NR). […]

The next assay deals with RA patients. The following applies: after a year (Furst 1996); cited from earlier work.

Values joined by “and” are separate entries in the source; they are usually repeats but may differ in a detail not shown here. Identical values can stand only once.

Take `CN(Cc1cnc2nc(N)nc(N)c2n1)c1ccc(C(=O)N[C@@H](CCC(=O)O)C(=O)O)cc1` [MTX, methotrexate]: in assay [1], the HAQ is 0.6 (2×) and 0.8 and 1.3 (3×) and 0.3 (3×) and 0.0 (3×) and 0.1 (4×) and 1.0 (2×) and 0.5 (2×) and 0.75 and 1.1 (3×) and 0.4 and 1.4 and 0.9 and 1.5 and 1.9 and 2.3. The sustained success rates in the assay with RA patients was 40-50%.

The values above are taken from patent US20170058348A1, “Predictive mRNA Biomarkers for the Prediction of the Treatment with Methotrexate (MTX)” (Charité - Universitätsmedizin Berlin, priority 2014, published 2017).
